Data published in the supplement of paper PMC10981050.

Tests used:
Assay in all cases: cell viability relative to vehicle control; higher = less cytotoxic
Details in all cases: SRSF2 genotype: SRSF2 WT
[1] = tested on: MARIMO
Experimental: (§1)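 Isogenic SRSF2 WT and CRISPR SRSF2 P95 mutant clones of MOLM14, OCI-AML2 and MARIMO were exposed to ROCK inhibitors at 7 doses (0.037 to 29.9 µM) for 48 h. Viability was read by CellTiter-Glo luminescence and normalised to the vehicle control on each plate (%).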

[2] = tested on: MOLM14
Experimental: as §1

[3] = tested on: OCI-AML2
Experimental: as §1

O=C(NCc1cccc(O)c1)Nc1nc(-c2ccncc2)cs1 [RKI-1447]
cell viability [%]
Details	0.037 µM	0.129 µM	0.369 µM	0.997 µM	3.49 µM	9.97 µM	29.9 µM
[1]	102	101	101	98.4	94.49	75.9	20.3
[2]	97	80.3	70.7	66.31	60.68	33	1.24
[3]	98.1	73.5	44.7	34.5	27.9	22.8	4.32
